Legend:
[1] = Phase 1 FIH study Part 4: safety and tolerability (TEAEs) in patients with stable schizophrenia; type: in vivo, human
Excerpt: Part 4 was a double-blind, weekly single dosing, parallel group design in patients with stable schizophrenia.
Participants in the placebo group received placebo on all study dosing days.
In Part 4, participants met schizophrenia criteria as defined by the Diagnostic and Statistical Manual of Mental Disorders, 5th Edition (DSM-5) by the Mini International Neuropsychiatric Interview (MINI), a Positive and Negative Syndrome Scale (PANSS) total score ≤90 and a sum of PANSS N1, N2, N3, N4, N6, G7 and G16≥15 at screening and baseline. In addition, participants had to be on a stable dose of antipsychotic medication for at least two months.
Safety measurements used in the phase 1 study included treatment-emergent adverse events (TEAEs), physical examinations, weight, height, BMI, vital signs, clinical laboratory evaluations, pregnancy monitoring, and ECG procedures.
Participants experiencing two or more different TEAEs were counted only once. Frequent TEAEs were defined as adverse events that occurred in at least two participants in any treatment. Participants were evaluated with respect to mood and alertness (BL-VAS) and suicidality (C-SSRS).

[2] = test system: ventral striatum activation; assay: fMRI BOLD ventral striatum activation in the MID Reward Task; type: in vivo, human
Excerpt: After a break, subjects took the second block that comprised a battery of imaging tests; namely, brain perfusion using non-contrast arterial spin labeling MRI and fMRI scans which monitor changes in blood oxygen level-dependent (BOLD) signal. The fMRI was run in resting state without a task (resting state fMRI) and with 2 tasks (2-task fMRI) using the monetary incentive delay (MID) Reward Task and a Set-Shifting Task. After a break, subjects took the third block which comprised the Effort Expenditure for Rewards Task and the Empathic Accuracy Task. Subjects also received the Positive and Negative Syndrome Scale (PANSS), the Brief Negative Syndrome Scale (BNSS), and the Clinical Global Impression (CGI) Scales (CGI-Severity and CGI-Improvement) as a part of the PD assessment.
The BOLD signal in the average of the left and right ventral striatum activation in the MID Reward Task 3.5 h post-dose on Day 1 and the BACS composite score on Day 14 were the primary PD measures.
The observed BOLD signal was summarized (N, mean, median, SD, minimum, and maximum) by treatment (Compound (I) (overall and by dose) and placebo) and time. The BACS composite score was summarized for baseline, post-dose, and change from baseline by treatment, dose, and time.
Each of the primary PD measures was analyzed using a Bayesian normal linear model with effects for sequence, period, treatment, time (as a categorical variable), the treatment-by-time interaction, subject within treatment sequence, and baseline (for BACS only). For the BOLD fMRI, the observed value was the response variable in the model. For the BACS, the observed and the change from baseline were modeled separately. Missing values were not imputed and were not included in the model under a missing at random assumption. A diffuse normal distribution with mean zero and variance 106 was used as a prior for the regression coefficients and a diffuse inverse gamma with shape and scale parameters of 0.01 for the residual variance.
The criteria for a positive result at the IA was 70% posterior probability (or greater) of a difference between Compound (I) and placebo >0.09 in ventral striatum activation in the MID fMRI at 3.5 h post-dose on Day 1 or 70% (or greater) posterior probability of a difference between Compound (I) and placebo >2 points in the BACS composite score at Day 14.

[3] = Part 4 MRD, 160/80 mg, N = 16, participants (percent)

## C[C@H](NC(=O)Cn1nnc2ccccc2c1=O)c1ccc(OC(F)(F)F)cc1 [Compound (I), (S)-2-(4-oxobenzo[d][1,2,3]triazin-3(4H)-yl)-N-(1-(4-(trifluoromethoxy)phenyl)ethyl)acetamide]
[1]; Part 4 (MRD)
  TEAE intensity: All TEAEs were mild
[1]; Part 4 (MRD), patients with schizophrenia who received Compound (I)
  frequency of TEAEs related to the study drug: 56.3%
[1]; [3]
  Any TEAE: 9 (56.3)
  TEAE Mild: 9 (56.3)
  TEAE Related: 9 (56.3)
[2]; Day 1
  ventral striatal activation relative to placebo: decrease in ventral striatal activation
[2]; Day 1, 40 mg
  posterior mean (SD) for the difference to placebo, fMRI BOLD endpoint: −0.1 (0.21)
[2]; Day 1, 160 mg
  posterior mean (SD) for the difference to placebo, fMRI BOLD endpoint: −0.15 (0.14)
[2]; Day 1, overall
  posterior mean (SD) for the difference to placebo, fMRI BOLD endpoint: −0.14 (0.11)
[2]; Day 14
  ventral striatal activation relative to placebo: dose-related increase in activation relative to placebo

Source: patent US20230310441A1, “TREATMENT FOR SCHIZOPHRENIA” (TAKEDA PHARMACEUTICAL COMPANY, priority 2020, published 2023)
